{"source": "PubChem BioAssay (NCI)", "assay_in_all_cases": "growth of human tumour cells (NCI), 48 h", "key": {"[1]": {"system": "HOP-92 NSCLC"}, "[2]": {"system": "SN12C renal"}, "[3]": {"system": "HCT-116 colon"}, "[4]": {"system": "A498 renal"}, "[5]": {"system": "ACHN renal"}, "[6]": {"system": "OVCAR-5 ovarian"}, "[7]": {"system": "MDA-MB-231 breast"}, "[8]": {"system": "HS 578T breast"}, "[9]": {"system": "HCT-15 colon"}, "[10]": {"system": "NCI-H23 lung"}, "[11]": {"system": "K-562 leukemia"}, "[12]": {"system": "MOLT-4 leukemia"}, "[13]": {"system": "MDA-MB-435"}, "[14]": {"system": "LOX IMVI melanoma"}, "[15]": {"system": "SK-MEL-28 melanoma"}, "[16]": {"system": "SF-268 CNS"}, "[17]": {"system": "OVCAR-4 ovarian"}, "[18]": {"system": "CAKI-1 renal"}, "[19]": {"system": "SF-539 CNS"}, "[20]": {"system": "NCI-H522 lung"}, "[21]": {"system": "M14 melanoma"}, "[22]": {"system": "SK-MEL-5 melanoma"}, "[23]": {"system": "T-47D breast"}, "[24]": {"system": "HL-60(TB) leukemia"}, "[25]": {"system": "UO-31 renal"}, "[26]": {"system": "MALME-3M melanoma"}, "[27]": {"system": "SK-OV-3 ovarian"}, "[28]": {"system": "SNB-75 CNS"}, "[29]": {"system": "UACC-257 melanoma"}, "[30]": {"system": "CCRF-CEM leukemia"}, "[31]": {"system": "EKVX NSCLC"}, "[32]": {"system": "KM12 colon"}, "[33]": {"system": "UACC-62 melanoma"}, "[34]": {"system": "RPMI-8226 leukemia"}, "[35]": {"system": "IGROV1 ovarian"}, "[36]": {"system": "NCI/ADR-RES ovarian"}, "[37]": {"system": "MDA-MB-468 breast"}, "[38]": {"system": "SR leukemia"}, "[39]": {"system": "HT29 colon"}, "[40]": {"system": "HCC-2998 colon"}, "[41]": {"system": "TK-10 renal"}, "[42]": {"system": "SW-620 colon"}, "[43]": {"system": "SNB-19 CNS"}, "[44]": {"system": "RXF 393 renal"}, "[45]": {"system": "DU-145 prostate"}, "[46]": {"system": "SK-MEL-2 melanoma"}, "[47]": {"system": "COLO 205 colon"}}, "note": "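The compound was tested at five concentrations on cells cultured in 96-well plates, with a 48-hour exposure period. Abbreviation: GI50, concentration required for 50% inhibition of growth. Definition used: TGI = concentration required for complete inhibition of growth.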", "data": [{"compound": "Cc1ccc2c(c1)nc(-c1ccccc1)n2CC(=O)N=Nc1c(O)[nH]c2ccc(Cl)cc12", "values": [{"measurement": "GI50", "setting": "[1]", "value": 1.57, "unit": "µM"}, {"measurement": "TGI", "setting": "[1]", "value": 3.76, "unit": "µM"}, {"measurement": "GI50", "setting": "[2]", "value": 1.78, "unit": "µM"}, {"measurement": "TGI", "setting": "[2]", "value": 3.54, "unit": "µM"}, {"measurement": "GI50", "setting": "[3]", "value": 2.48, "unit": "µM"}, {"measurement": "TGI", "setting": "[3]", "value": 6.21, "unit": "µM"}, {"measurement": "GI50", "setting": "[4]", "value": 1.91, "unit": "µM"}, {"measurement": "TGI", "setting": "[4]", "value": 3.93, "unit": "µM"}, {"measurement": "GI50", "setting": "[5]", "value": 1.61, "unit": "µM"}, {"measurement": "TGI", "setting": "[5]", "value": 3.31, "unit": "µM"}, {"measurement": "GI50", "setting": "[6]", "value": 2.91, "unit": "µM"}, {"measurement": "TGI", "setting": "[6]", "value": 9.28, "unit": "µM"}, {"measurement": "GI50", "setting": "[7]", "value": 1.83, "unit": "µM"}, {"measurement": "TGI", "setting": "[7]", "value": 3.52, "unit": "µM"}, {"measurement": "GI50", "setting": "[8]", "value": 2.09, "unit": "µM"}, {"measurement": "TGI", "setting": "[8]", "value": 6.14, "unit": "µM"}, {"measurement": "GI50", "setting": "[9]", "value": 1.81, "unit": "µM"}, {"measurement": "TGI", "setting": "[9]", "value": 3.57, "unit": "µM"}, {"measurement": "GI50", "setting": "[10]", "value": 1.7, "unit": "µM"}, {"measurement": "TGI", "setting": "[10]", "value": 3.35, "unit": "µM"}, {"measurement": "GI50", "setting": "[11]", "value": 3.13, "unit": "µM"}, {"measurement": "TGI", "setting": "[11]", "value": "> 100", "unit": "µM"}, {"measurement": "GI50", "setting": "[12]", "value": 2.39, "unit": "µM"}, {"measurement": "TGI", "setting": "[12]", "value": 11.5, "unit": "µM"}, {"measurement": "GI50", "setting": "[13]", "value": 2.38, "unit": "µM"}, {"measurement": "TGI", "setting": "[13]", "value": 5.44, "unit": "µM"}, {"measurement": "GI50", "setting": "[14]", "value": 1.57, "unit": "µM"}, {"measurement": "TGI", "setting": "[14]", "value": 2.98, "unit": "µM"}, {"measurement": "GI50", "setting": "[15]", "value": 1.88, "unit": "µM"}, {"measurement": "TGI", "setting": "[15]", "value": 3.52, "unit": "µM"}, {"measurement": "GI50", "setting": "[16]", "value": 2.36, "unit": "µM"}, {"measurement": "TGI", "setting": "[16]", "value": 6.49, "unit": "µM"}, {"measurement": "GI50", "setting": "[17]", "value": 2.37, "unit": "µM"}, {"measurement": "TGI", "setting": "[17]", "value": 5.93, "unit": "µM"}, {"measurement": "GI50", "setting": "[18]", "value": 2.18, "unit": "µM"}, {"measurement": "TGI", "setting": "[18]", "value": 6.64, "unit": "µM"}, {"measurement": "GI50", "setting": "[19]", "value": 1.69, "unit": "µM"}, {"measurement": "TGI", "setting": "[19]", "value": 3.29, "unit": "µM"}, {"measurement": "GI50", "setting": "[20]", "value": 1.67, "unit": "µM"}, {"measurement": "TGI", "setting": "[20]", "value": 3.38, "unit": "µM"}, {"measurement": "GI50", "setting": "[21]", "value": 2.17, "unit": "µM"}, {"measurement": "TGI", "setting": "[21]", "value": 4.77, "unit": "µM"}, {"measurement": "GI50", "setting": "[22]", "value": 2.01, "unit": "µM"}, {"measurement": "TGI", "setting": "[22]", "value": 4.92, "unit": "µM"}, {"measurement": "GI50", "setting": "[23]", "value": 1.94, "unit": "µM"}, {"measurement": "TGI", "setting": "[23]", "value": 5.14, "unit": "µM"}, {"measurement": "GI50", "setting": "[24]", "value": 4.62, "unit": "µM"}, {"measurement": "TGI", "setting": "[24]", "value": 29.8, "unit": "µM"}, {"measurement": "GI50", "setting": "[25]", "value": 1.38, "unit": "µM"}, {"measurement": "TGI", "setting": "[25]", "value": 3.36, "unit": "µM"}, {"measurement": "GI50", "setting": "[26]", "value": 1.87, "unit": "µM"}, {"measurement": "TGI", "setting": "[26]", "value": 4.07, "unit": "µM"}, {"measurement": "GI50", "setting": "[27]", "value": 2.11, "unit": "µM"}, {"measurement": "TGI", "setting": "[27]", "value": 4.44, "unit": "µM"}, {"measurement": "GI50", "setting": "[28]", "value": 1.52, "unit": "µM"}, {"measurement": "TGI", "setting": "[28]", "value": 3.39, "unit": "µM"}, {"measurement": "GI50", "setting": "[29]", "value": 1.86, "unit": "µM"}, {"measurement": "TGI", "setting": "[29]", "value": 3.77, "unit": "µM"}, {"measurement": "GI50", "setting": "[30]", "value": 2.41, "unit": "µM"}, {"measurement": "TGI", "setting": "[30]", "value": 52.9, "unit": "µM"}, {"measurement": "GI50", "setting": "[31]", "value": 1.61, "unit": "µM"}, {"measurement": "TGI", "setting": "[31]", "value": 3.71, "unit": "µM"}, {"measurement": "GI50", "setting": "[32]", "value": 2.95, "unit": "µM"}, {"measurement": "TGI", "setting": "[32]", "value": 9.49, "unit": "µM"}, {"measurement": "GI50", "setting": "[33]", "value": 1.75, "unit": "µM"}, {"measurement": "TGI", "setting": "[33]", "value": 3.45, "unit": "µM"}, {"measurement": "GI50", "setting": "[34]", "value": 2.78, "unit": "µM"}, {"measurement": "TGI", "setting": "[34]", "value": 10.4, "unit": "µM"}, {"measurement": "GI50", "setting": "[35]", "value": 1.69, "unit": "µM"}, {"measurement": "TGI", "setting": "[35]", "value": 3.38, "unit": "µM"}, {"measurement": "GI50", "setting": "[36]", "value": 1.84, "unit": "µM"}, {"measurement": "TGI", "setting": "[36]", "value": 3.55, "unit": "µM"}, {"measurement": "GI50", "setting": "[37]", "value": 1.34, "unit": "µM"}, {"measurement": "TGI", "setting": "[37]", "value": 2.77, "unit": "µM"}, {"measurement": "GI50", "setting": "[38]", "value": 3.41, "unit": "µM"}, {"measurement": "TGI", "setting": "[38]", "value": "> 100", "unit": "µM"}, {"measurement": "GI50", "setting": "[39]", "value": 1.84, "unit": "µM"}, {"measurement": "TGI", "setting": "[39]", "value": 3.76, "unit": "µM"}, {"measurement": "GI50", "setting": "[40]", "value": 1.79, "unit": "µM"}, {"measurement": "TGI", "setting": "[40]", "value": 3.47, "unit": "µM"}, {"measurement": "GI50", "setting": "[41]", "value": 2.79, "unit": "µM"}, {"measurement": "TGI", "setting": "[41]", "value": 7.18, "unit": "µM"}, {"measurement": "GI50", "setting": "[42]", "value": 2.07, "unit": "µM"}, {"measurement": "TGI", "setting": "[42]", "value": 4.43, "unit": "µM"}, {"measurement": "GI50", "setting": "[43]", "value": 2.13, "unit": "µM"}, {"measurement": "TGI", "setting": "[43]", "value": 5.55, "unit": "µM"}, {"measurement": "GI50", "setting": "[44]", "value": 1.5, "unit": "µM"}, {"measurement": "TGI", "setting": "[44]", "value": 3.04, "unit": "µM"}, {"measurement": "GI50", "setting": "[45]", "value": 2.53, "unit": "µM"}, {"measurement": "TGI", "setting": "[45]", "value": 5.8, "unit": "µM"}, {"measurement": "GI50", "setting": "[46]", "value": 10.5, "unit": "µM"}, {"measurement": "TGI", "setting": "[46]", "value": 25, "unit": "µM"}, {"measurement": "GI50", "setting": "[47]", "value": 2.67, "unit": "µM"}, {"measurement": "TGI", "setting": "[47]", "value": 7, "unit": "µM"}]}]}
